Reference: patent publication US20220145264A1, “CULTURE MEDIUM FOR MAMMALIAN EXPANDED POTENTIAL STEM CELLS, COMPOSITION, AND METHODS THEREOF” (THE UNIVERSITY OF HONG KONG, priority 2019, published 2022)
Entries after “also recorded” stand apart in the source; their conditions may differ.

Tests used:
H1-EPSCs = assay: EB formation assay of H1-EPSCs, lineage gene expression; assay type: cell-based, human; conditions: 5.0 ng/ml supplemented in hEPSCM
Experimental: Porcine and human EPSCs were trypsinised and seeded in gelatinised 6-well plates at a density of 4×10^6 cells/well for pre-differentiation. M15 media supplemented with 20 ng/ml ACTIVIN A (SCI) and 5 μM Rock inhibitor Y-27632 were used to culture the replated cells. The next day, the cells were detached using 0.25% trypsin/EDTA (Gibco, Cat. No. 25500-054) and plated to ultra-low cell attachment U-bottom 96-well plates (Corning, Cat. No. 7007) at a density of 5,000-6,000 cells/well in 200 μl M10 medium. After 7-8 days of growing, the EBs were collected for analysis. 0.25% (v/v) poly-vinyl alcohol (Sigma, Cat. No. 341584) was added in the medium to help cells aggregation.
Total RNA was isolated using an RNeasy Mini Kit (Qiagen, Cat. No. 74106) for cultured cells or RNeasy Micro Kit (Qiagen, Cat. No. 74034) for sorted NANOS3-mCherry^+ cells. RNA was subsequently quantified and treated with gDNA WipeOut to remove genomic DNA. Complementary DNA (cDNA) was prepared using a QuantiTect Reverse Transcription Kit (Qiagen, Cat. No. 205311). RT-qPCR primers or TaqMan Gene Expression Assays (Life Technologies) are listed in Supplementary Table 10 and 11. […] Gene expression was determined relative to GAPDH using the […]. […]

[1] = test system: Dox dependent porcine iPSCs; assay: Screening for the porcine EPSC culture conditions; assay type: cell-based; conditions: 1.0 μM, irrespective of whether Dox was present
Experimental: Dox dependent porcine iPSCs were dissociated in 0.25% trypsin/EDTA solution (Gibco, Cat. No. 25500-054) and seeded in 24-well STO feeder plates at a density of 1×10^4 cells per well. The cells were cultured in M15 supplemented with Dox (Sigma, Cat. No. D9891), Vitamin C (Sigma, Cat. No. 49752-100G) and 10 ng/ml bFGF (SCI) for two days before the culture media was switched to medium supplemented with indicated small molecules and cytokines (Supplementary Table 1). M15 and N2B27 media: see above. AlbumMax media: DMEM/F12 (Gibco, Cat. No. 21331-020), 20% AlbumMax II (Gibco, Cat. No. 11021-037), […] Human Insulin (Sigma, Cat. No. 91077C), 2×B27 Supplement, […] IGFII (R&D, Cat. No. 292-G2-250), 1×Glutamine Penicillin-Streptomycin (Thermo Fisher Scientific, Cat. No. 11140-050), 1×NEAA (Thermo Fisher Scientific, Cat. No. 10378-016) and 0.1 mM 2mercaptoethanol (Sigma, Cat. No. M6250). 20% KSR media: DMEM/F-12 (Gibco, Cat. No. 21331-020), 20% KnockOut Serum Replacement (KSR) (Gibco, Cat. No. 10828-028), 1× glutamine penicillin-streptomycin (Thermo Fisher Scientific, Cat. No. 11140-050), 1×NEAA (Thermo Fisher Scientific, Cat. No. 10378-016) and 0.1 mM 2-mercaptoethanol (Sigma, Cat. No. M6250). […]

| Compound | embryonic mesendoderm lineage differentiation / lineage gene expression in EBs (H1-EPSCs) | survival of porcine iPSCs / porcine cells in the screens [1] | survival of porcine iPSCs / porcine cells in the screens ([1]; listed as PD-0325901) |
| --- | --- | --- | --- |
| ACTIVIN A: Human Recombinant ACTIVIN A cytokine | stronger propensity for embryonic mesendoderm lineage differentiation; also recorded: substantially increased | – | – |
| O=C(NOC[C@H](O)CO)c1ccc(F)c(F)c1Nc1ccc(I)cc1F [PD0325901] | – | deleterious to porcine cells | rapidly lost |
